Laboratory results reported in ChEMBL document CHEMBL5465560, “Selectivity Literature for EUbOPEN Chemogenomic Library” (2024).

Assays:
[1] = biological target: Beta-1 adrenergic receptor (Homo sapiens, UniProt P08588); test: Selectivity interaction (Panel of non-epigenetic targets (kinases, GPCRs, ion channels, and transporters, Eurofins) ) EUB0000271b ADRB1; conditions: at 1 µM
[2] = biological target: Testis-specific serine/threonine-protein kinase 4 (Homo sapiens) (UniProt Q6SA08); test: Selectivity interaction (Kinase panel (Eurofins)) EUB0001564a TSSK4; conditions: at 1 µM
[3] = biological target: T1, Interleukin-1 receptor-associated kinase 4 (Homo sapiens) (UniProt Q9NWZ3); test: Selectivity interaction (Kinase panel (literature)) EUB0001199aCl IRAK4; conditions: at 1 µM
T1 sequence (whole entry): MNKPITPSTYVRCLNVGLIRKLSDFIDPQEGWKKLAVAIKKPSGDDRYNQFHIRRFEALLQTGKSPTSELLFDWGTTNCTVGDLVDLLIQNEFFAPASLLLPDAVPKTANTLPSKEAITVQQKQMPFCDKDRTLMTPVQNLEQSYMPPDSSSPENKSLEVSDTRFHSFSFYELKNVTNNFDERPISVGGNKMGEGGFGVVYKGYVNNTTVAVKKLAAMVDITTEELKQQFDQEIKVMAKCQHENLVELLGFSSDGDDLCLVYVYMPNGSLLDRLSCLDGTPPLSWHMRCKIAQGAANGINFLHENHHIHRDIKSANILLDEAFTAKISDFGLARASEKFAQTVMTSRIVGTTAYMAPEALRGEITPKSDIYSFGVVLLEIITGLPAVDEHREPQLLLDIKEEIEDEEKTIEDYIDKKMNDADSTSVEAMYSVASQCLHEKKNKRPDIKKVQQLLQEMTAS

[4] = biological target: Mitogen-activated protein kinase kinase kinase 11 (Homo sapiens) (UniProt Q16584); test: Selectivity interaction (KinomeScan (DiscoverX)) EUB0000655a MAP3K11; conditions: at 10 µM
[5] = biological target: Serine/threonine-protein kinase Nek7 (Homo sapiens) (UniProt Q8TDX7); test: Selectivity interaction (KinomeScan (DiscoverX)) EUB0001079a NEK7; conditions: at 1 µM
[6] = biological target: Protein kinase C eta type (Homo sapiens) (UniProt P24723); test: Selectivity interaction (KinomeScan (DiscoverX)) EUB0000618a PRKCH; conditions: at 10 µM
[7] = biological target: Myosin light chain kinase 2, skeletal/cardiac muscle (Homo sapiens) (UniProt Q9H1R3); test: Selectivity interaction (SelectScreen profiling (Invitrogen)) EUB0000607a MYLK2; conditions: at 2 µM
[8] = biological target: Serine/threonine-protein kinase pim-3 (Homo sapiens) (UniProt Q86V86); test: Selectivity interaction (KinomeScan (DiscoverX)) EUB0000607a PIM3; conditions: at 10 µM
[9] = biological target: Activin receptor type-2B (Homo sapiens) (UniProt Q13705); test: Selectivity interaction (KinomeScan (DiscoverX)) EUB0000045b ACVR2B
[10] = biological target: Protein kinase C delta type (Homo sapiens) (UniProt Q05655); test: Selectivity interaction (KinomeScan (DiscoverX)) EUB0000045b PRKCD
[11] = test system: Tyrosine-protein kinase ABL1 (Homo sapiens), P00519 [Q252H]; test: Selectivity interaction (KinomeScan (DiscoverX)) EUB0000045b ABL1; conditions: at 1 µM
[12] = biological target: cAMP-dependent protein kinase catalytic subunit beta (Homo sapiens) (UniProt P22694); conditions: at 10 µM
[13] = biological target: T2, Hormonally up-regulated neu tumor-associated kinase (Homo sapiens) (UniProt P57058); test: Selectivity interaction (KinomeScan (DiscoverX)) EUB0000229b HUNK; conditions: at 10 µM
T2 sequence (whole entry): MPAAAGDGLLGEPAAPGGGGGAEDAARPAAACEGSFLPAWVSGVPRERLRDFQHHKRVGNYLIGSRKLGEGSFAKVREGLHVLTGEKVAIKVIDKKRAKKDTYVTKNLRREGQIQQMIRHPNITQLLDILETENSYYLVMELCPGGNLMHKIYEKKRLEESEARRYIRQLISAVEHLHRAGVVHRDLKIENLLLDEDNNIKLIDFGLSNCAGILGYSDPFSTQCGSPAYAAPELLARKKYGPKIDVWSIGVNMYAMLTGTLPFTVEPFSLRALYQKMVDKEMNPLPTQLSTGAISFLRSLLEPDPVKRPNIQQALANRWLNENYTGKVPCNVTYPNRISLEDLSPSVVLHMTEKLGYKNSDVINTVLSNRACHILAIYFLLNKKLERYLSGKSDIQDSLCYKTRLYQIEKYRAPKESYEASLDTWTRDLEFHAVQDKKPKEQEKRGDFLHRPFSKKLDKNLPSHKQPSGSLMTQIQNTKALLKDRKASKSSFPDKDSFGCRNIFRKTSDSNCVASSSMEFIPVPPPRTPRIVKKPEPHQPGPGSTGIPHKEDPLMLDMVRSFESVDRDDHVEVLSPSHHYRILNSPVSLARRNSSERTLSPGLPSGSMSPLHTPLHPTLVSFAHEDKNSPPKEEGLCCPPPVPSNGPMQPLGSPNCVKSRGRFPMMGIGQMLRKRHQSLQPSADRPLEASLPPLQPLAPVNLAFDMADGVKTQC

[14] = test system: ALK tyrosine kinase receptor (Homo sapiens), Q9UM73 [C1156Y]; test: Selectivity interaction (KinomeScan (DiscoverX)) EUB0001049a ALK; conditions: at 1 µM
D(1A) dopamine receptor = D(1A) dopamine receptor (Homo sapiens, UniProt P21728); test: Selectivity interaction (Panel of kinases, GPCRs, ion channels and transporters (enzymatic assay)) EUB0000223bCl DRD1
[15] = biological target: T3, Interleukin-1 receptor-associated kinase 3 (Homo sapiens) (UniProt Q9Y616); test: Selectivity interaction (KinomeScan (DiscoverX)) EUB0000092b IRAK3; conditions: at 10 µM
T3 sequence (whole entry): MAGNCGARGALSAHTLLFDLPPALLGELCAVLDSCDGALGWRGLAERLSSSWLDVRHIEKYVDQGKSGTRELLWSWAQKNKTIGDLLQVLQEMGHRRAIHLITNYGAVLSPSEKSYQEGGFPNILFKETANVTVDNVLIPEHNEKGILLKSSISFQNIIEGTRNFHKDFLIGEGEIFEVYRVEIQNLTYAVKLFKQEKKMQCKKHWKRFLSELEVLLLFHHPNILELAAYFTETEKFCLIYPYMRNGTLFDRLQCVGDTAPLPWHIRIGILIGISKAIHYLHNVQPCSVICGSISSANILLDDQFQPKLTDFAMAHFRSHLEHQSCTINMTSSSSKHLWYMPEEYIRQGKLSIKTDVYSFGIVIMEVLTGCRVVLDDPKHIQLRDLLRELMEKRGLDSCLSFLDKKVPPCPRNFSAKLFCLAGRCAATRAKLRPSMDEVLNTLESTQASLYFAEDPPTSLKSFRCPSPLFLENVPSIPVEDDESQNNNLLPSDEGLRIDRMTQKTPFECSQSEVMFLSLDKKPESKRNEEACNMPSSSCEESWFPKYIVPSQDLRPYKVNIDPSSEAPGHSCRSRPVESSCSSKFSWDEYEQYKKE

Chain of Protein kinase C delta type (Homo sapiens) (Q05655 whole entry, looked up): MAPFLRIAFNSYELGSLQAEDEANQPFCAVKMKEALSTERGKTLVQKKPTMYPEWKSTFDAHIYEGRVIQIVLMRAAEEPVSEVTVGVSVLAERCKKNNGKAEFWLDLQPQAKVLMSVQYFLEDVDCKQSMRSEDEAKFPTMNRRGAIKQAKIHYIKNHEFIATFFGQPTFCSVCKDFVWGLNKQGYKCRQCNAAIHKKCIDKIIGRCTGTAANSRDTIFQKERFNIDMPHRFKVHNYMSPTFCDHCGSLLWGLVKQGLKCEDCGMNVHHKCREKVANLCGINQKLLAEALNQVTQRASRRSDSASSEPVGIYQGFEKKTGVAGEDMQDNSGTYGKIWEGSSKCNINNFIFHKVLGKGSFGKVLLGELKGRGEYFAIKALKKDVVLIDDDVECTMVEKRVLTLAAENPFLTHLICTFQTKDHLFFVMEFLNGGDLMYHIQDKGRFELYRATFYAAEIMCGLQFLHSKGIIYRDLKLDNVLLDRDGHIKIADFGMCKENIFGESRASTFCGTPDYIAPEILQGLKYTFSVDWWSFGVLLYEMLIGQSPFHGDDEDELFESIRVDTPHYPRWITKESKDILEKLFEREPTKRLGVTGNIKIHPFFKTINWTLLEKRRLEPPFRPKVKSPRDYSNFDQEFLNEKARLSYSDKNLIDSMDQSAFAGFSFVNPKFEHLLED
Chain of Activin receptor type-2B (Homo sapiens) (Q13705 whole entry): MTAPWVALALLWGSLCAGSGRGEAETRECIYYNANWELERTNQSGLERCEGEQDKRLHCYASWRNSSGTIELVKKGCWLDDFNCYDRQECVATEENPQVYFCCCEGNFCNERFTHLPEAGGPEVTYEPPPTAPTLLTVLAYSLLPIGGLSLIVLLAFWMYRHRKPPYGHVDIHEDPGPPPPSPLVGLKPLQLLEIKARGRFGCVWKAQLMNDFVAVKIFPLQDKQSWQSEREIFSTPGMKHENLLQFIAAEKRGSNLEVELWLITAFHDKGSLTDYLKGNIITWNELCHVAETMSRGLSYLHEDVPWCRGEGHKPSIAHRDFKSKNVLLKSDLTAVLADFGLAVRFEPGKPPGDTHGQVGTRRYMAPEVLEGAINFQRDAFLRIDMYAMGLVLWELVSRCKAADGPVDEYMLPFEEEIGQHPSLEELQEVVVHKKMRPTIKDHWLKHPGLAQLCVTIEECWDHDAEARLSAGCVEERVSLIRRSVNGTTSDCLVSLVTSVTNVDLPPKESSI
Chain of D(1A) dopamine receptor (P21728 whole entry): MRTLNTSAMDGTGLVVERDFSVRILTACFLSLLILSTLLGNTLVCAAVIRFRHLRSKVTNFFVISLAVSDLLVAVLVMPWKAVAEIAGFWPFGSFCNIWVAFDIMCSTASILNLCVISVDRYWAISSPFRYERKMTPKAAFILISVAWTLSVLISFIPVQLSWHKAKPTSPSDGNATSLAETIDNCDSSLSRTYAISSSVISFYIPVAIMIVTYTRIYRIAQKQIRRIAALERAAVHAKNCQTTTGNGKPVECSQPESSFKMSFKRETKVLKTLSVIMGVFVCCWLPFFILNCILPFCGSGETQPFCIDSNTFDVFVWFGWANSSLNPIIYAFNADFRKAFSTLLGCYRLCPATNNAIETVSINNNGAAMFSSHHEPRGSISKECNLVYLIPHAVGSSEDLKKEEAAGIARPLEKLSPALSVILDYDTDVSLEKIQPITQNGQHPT
Chain of Myosin light chain kinase 2, skeletal/cardiac muscle (Homo sapiens) (Q9H1R3 whole entry): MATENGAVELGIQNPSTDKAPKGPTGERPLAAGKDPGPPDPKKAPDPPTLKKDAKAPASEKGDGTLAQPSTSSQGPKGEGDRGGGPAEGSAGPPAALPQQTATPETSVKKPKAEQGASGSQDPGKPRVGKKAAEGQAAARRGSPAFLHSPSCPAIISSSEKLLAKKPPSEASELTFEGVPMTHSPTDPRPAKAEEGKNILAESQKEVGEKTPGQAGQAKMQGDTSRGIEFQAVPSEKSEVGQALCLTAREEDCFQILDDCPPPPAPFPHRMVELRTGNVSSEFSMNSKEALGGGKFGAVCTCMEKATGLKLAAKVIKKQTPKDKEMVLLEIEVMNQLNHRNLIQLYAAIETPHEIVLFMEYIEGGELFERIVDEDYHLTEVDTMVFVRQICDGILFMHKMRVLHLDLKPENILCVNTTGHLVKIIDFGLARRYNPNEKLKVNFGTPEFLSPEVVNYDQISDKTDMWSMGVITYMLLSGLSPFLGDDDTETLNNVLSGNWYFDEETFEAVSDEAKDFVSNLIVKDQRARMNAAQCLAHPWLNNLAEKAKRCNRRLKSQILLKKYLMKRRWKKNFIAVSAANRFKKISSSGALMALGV
Chain of Beta-1 adrenergic receptor (P08588 whole entry, looked up): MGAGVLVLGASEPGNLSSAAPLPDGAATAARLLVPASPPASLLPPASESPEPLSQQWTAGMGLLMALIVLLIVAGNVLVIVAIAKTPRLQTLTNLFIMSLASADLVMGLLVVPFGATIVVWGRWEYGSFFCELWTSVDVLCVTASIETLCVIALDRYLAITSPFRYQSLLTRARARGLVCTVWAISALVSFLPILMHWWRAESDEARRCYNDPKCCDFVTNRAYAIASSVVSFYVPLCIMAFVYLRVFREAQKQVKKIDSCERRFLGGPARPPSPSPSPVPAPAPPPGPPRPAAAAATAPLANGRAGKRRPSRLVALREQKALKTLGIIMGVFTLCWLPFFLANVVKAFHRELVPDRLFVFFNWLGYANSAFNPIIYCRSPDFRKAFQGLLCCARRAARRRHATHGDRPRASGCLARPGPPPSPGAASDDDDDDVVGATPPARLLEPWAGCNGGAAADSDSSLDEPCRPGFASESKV
Chain of Testis-specific serine/threonine-protein kinase 4 (Homo sapiens) (Q6SA08 whole entry): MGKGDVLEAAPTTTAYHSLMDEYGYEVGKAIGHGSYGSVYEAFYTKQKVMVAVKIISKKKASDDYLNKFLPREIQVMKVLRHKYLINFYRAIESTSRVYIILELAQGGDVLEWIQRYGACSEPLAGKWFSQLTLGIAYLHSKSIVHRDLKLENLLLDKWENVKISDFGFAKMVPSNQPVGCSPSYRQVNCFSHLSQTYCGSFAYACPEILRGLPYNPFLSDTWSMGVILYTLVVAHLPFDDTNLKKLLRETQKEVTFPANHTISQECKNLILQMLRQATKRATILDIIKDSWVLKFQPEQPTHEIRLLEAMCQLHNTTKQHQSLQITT
Chain of Serine/threonine-protein kinase Nek7 (Homo sapiens) (Q8TDX7 whole entry, looked up): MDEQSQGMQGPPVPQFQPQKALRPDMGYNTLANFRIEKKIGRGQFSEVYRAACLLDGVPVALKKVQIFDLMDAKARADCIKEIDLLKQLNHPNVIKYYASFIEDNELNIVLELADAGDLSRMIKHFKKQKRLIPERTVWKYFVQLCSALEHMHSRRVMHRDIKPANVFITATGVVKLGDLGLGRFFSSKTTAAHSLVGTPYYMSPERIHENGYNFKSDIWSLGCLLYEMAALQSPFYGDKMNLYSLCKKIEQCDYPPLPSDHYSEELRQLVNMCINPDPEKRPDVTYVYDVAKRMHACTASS
Chain of Mitogen-activated protein kinase kinase kinase 11 (Homo sapiens) (Q16584 whole entry, looked up): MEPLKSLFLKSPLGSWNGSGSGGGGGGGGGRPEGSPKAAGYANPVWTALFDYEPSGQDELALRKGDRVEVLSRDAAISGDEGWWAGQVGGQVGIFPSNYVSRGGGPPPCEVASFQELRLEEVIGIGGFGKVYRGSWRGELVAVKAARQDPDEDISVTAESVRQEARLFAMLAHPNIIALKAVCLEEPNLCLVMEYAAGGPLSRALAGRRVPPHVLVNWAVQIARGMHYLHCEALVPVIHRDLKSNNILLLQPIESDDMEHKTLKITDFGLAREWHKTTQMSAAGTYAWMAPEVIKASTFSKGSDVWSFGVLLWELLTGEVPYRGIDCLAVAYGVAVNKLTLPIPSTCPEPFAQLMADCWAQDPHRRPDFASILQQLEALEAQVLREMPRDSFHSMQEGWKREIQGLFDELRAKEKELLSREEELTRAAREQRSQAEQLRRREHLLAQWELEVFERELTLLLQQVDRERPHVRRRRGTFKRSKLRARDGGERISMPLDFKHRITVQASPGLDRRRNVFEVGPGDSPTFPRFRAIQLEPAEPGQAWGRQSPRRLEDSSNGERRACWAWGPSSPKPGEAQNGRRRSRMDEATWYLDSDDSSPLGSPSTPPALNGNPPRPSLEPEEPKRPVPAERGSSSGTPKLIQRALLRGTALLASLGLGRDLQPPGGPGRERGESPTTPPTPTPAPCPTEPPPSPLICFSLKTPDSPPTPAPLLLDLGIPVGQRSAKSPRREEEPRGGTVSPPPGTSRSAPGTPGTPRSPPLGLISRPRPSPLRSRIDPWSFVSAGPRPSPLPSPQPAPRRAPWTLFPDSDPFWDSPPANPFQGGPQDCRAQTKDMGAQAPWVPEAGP
Chain of Protein kinase C eta type (Homo sapiens) (P24723 whole entry): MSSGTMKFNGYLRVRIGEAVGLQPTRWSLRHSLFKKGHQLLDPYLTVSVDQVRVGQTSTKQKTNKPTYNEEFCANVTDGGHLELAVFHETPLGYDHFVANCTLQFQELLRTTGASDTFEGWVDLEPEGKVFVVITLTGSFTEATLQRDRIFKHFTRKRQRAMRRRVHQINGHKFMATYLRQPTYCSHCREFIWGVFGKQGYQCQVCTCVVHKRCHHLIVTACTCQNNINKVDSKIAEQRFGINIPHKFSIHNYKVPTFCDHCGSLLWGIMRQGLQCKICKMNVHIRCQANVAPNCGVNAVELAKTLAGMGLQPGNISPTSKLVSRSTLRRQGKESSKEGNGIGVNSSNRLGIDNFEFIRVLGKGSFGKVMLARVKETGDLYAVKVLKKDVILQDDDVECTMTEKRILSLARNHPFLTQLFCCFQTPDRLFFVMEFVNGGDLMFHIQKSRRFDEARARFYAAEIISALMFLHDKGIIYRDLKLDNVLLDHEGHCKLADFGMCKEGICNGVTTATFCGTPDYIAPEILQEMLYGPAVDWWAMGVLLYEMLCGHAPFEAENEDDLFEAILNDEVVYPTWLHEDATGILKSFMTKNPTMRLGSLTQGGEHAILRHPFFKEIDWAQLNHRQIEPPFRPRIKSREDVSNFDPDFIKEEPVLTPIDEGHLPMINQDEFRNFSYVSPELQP

Cc1cc(C)cc([C@@H]2c3cc(C)ccc3NC(=O)CN2C(=O)c2ccc(Br)s2)c1
% of inhibition [1]: -13%

CC[C@@H](Nc1c(C#N)c(-c2ccc(-c3cccc(C)c3F)cc2)nc2cnccc12)C(=O)O [BAY-091]
% of inhibition [2]: 24%

CN1Cc2nccc(-c3cn(C)nc3-c3ccc(F)cc3)c2C1=O
% of inhibition [3]: -8%

CN(C)CCOc1ccc(-c2nc(-c3ccncc3)c(-c3ccc4c(c3)CC/C4=N\O)[nH]2)cc1
% of control [4]: 100%

Nc1cnc(N2CCc3cc(S(=O)(=O)Nc4c(F)cc(Cl)cc4F)cc(N4CCCC4=O)c32)nc1 [TP-020n]
% of control [5]: 96%

O[C@H]1CC[C@H](Nc2ncc3nc(Nc4c(F)cc(F)cc4F)n([C@H]4CCOC4)c3n2)CC1
% of control [6]: 96%

CNC(=O)Nc1ccc(-c2nc(N3CC4CCC(C3)O4)c3cnn(C4CCC5(CC4)OCCO5)c3n2)cc1
% of inhibition [7]: 8%
% of control [8]: 100%

C=CC(=O)Nc1cc(-n2c(=O)ccc3cnc4ccc(-c5ccc(NS(C)(=O)=O)cc5)cc4c32)ccc1C
% of control ([9]; at 1 µM): 100%
% of control ([9]; at 10 µM): 84%
% of control ([10]; at 1 µM): 41%
% of control ([10]; at 10 µM): 91%
% of control [11]: 95%

Cc1cc([C@@H](C)Nc2ccccc2C(=O)O)c2nc(N3CCOCC3)cc(=O)n2c1 [AZD-6482]
% of control [12]: 100%

COc1cc(N(C)c2ccnc3ccc(C(F)(F)F)cc23)cc(OC)c1OC
% binding [13]: 93%

COc1cc(Nc2nc(C)cc(-c3cnn4nc(OC)ccc34)n2)cc(C(F)(F)F)c1
% of control [14]: 89%

COc1cc(C(=O)N2CC[C@@H](O)[C@@H](N)C2)cc2nc(-c3cc4ccccc4n3CC3CC3)n(C)c12
pXC50 (D(1A) dopamine receptor): < 4.5 M

CCC(=O)N1CCN(c2ccc(-n3c(=O)ccc4cnc5ccc(-c6cnc7ccccc7c6)cc5c43)cc2C(F)(F)F)CC1
% of control [15]: 27%
